{
  "source": "patent US20200400567A1",
  "about": "“FUSION POLYPEPTIDE” (PEKING UNIVERSITY, priority 2017, published 2020)",
  "assay_type_in_all_cases": "cell-based",
  "key": {"human ADRA2A receptor [1]": {"test_system": "human ADRA2A receptor", "method": "The perfusion system was set on a microscope, and including a solution-introduced system, an imaging cell, and a suction pump. During the perfusion process, the imaging cell was placed above the objective lens of the inverted microscope, and the slide with cultured cells was placed in the cell. The perfusion experiments of different drugs were performed by controlling the switches of the different pipes of the solution-introduced system. The perfusion speed was set to one drop or so per second. In order to ensure the stability of the focal plane, the liquid level was kept constant at all times, and the flow rate of each solution was adjusted accordingly. The aspiration speed was adjusted to maintain the liquid level in the cell over the slide.\nThe region of interest (ROI) and background area were selected manually prior to the perfusion experiment. The exposure time was set to less than 50 ms and the acquisition frequency was 5 seconds. The solution used for the perfusion was a physiological solution 4k (pH 7.3-7.4), which was used to formulate the drug to the desired concentration. The running time of the program was set to no more than 5 min. After using 4k to balance and stabilize the cells for about 60-90 s, the cells were perfused with drug for 60 s, and then washed with 4k. The excitation light for green fluorescent protein was 488 nm, and for red fluorescent protein was 568 nm. The laser intensity was adjusted according to the working state of the laser and the expression level of the cells.\nAfter the end of the program, the time-fluorescence intensity data sheet was exported. The background was subtracted from the ROI to get the corresponding fluorescence value Ft, and the average value of the fluorescence value before adding the drug was used as the starting fluorescence F0 to calculate\nThe detection of the response of the GRAB sensor to the ligand (ΔF/F0) was performed by drug perfusion. The cells were maintained in a standard physiological solution, and the formula thereof is: […]\nFluorescence imaging data was processed using ImageJ software. For the fluorescence performance of GRAB sensors in HEK293T cells and neurons, the entire cell body was selected as the data processing region. The change in the fluorescence signal was usually indicated by its relative intensity change. The background area without the expression of the sensor was first subtracted from the fluorescence signal, so as to obtain the true expression intensity of the fluorescent protein."}, "human ADRA2A receptor [2]": {"test_system": "human ADRA2A receptor", "assay": "Response kinetics of GRAB-NE2.2 by photolysis of NPEC-caged-NE", "details": "GRAB-NE2.2, 10 μM Yohimbine", "quoted_text": "100 μM NPEC-NE was prepared in DMSO. The photo-uncaging experiment was performed on a Nikon laser scanning confocal microscope. The light stimulation was 80% of the 405 nm laser for 76 ms, and the stimulation area was 2×2 pixel rectangle (1 pixel=0.62 μm).\nBy caging neurotransmitters, neurotransmitters can be quickly activated and released in a certain area, and the signal of the sensor was fast scanned by a microscope to obtain the time constant for the change in fluorescence intensity after the sensor binds to the ligand. The experiment was performed in HEK293T cells using the neurotransmitter NPEC caged NE (i.e., NPEC-NE) (FIG. 29a), 405 nm laser for activating NPEC-caged NE, and GRAB-NE2.2."}, "human ADRA2A receptor [3]": {"test_system": "human ADRA2A receptor", "assay": "GRAB-NE2.1 in cultured rat cortical neurons, drug perfusion", "details": "GRAB-NE2.1 in neurons", "quoted_text": "Newborn Sprague-Dawley rats were used for the primary culture of rat neurons. After the skin was washed with alcohol, the head of newborn rat was dissected with surgical instruments, and the vascular membrane on the surface of the cortex was carefully removed after removing the brain. The cortical tissue was cut into pieces and placed in a 0.25% trypsin solution, and digested for 10 minutes in an incubator at 37° C. The digestion was terminated with a DMEM medium containing 5% FBS, and the cells were further isolated by slowly pipetting up and down ten times with a pipette. After standing for 5 minutes, the pellet containing the tissue debris was discarded and the upper layer solution was collected and centrifuged at 1000 rpm for 5 minutes in a centrifuge. Thereafter, the supernatant was discarded and the neurons were resuspended with the Neurobasal+B27 medium used for culturing the neurons. The density was calculated using a cell counting chamber. After that, the cells were diluted at a density of 0.5-1×10^6 cells/ml and plated on the slides coated with poly-lysine (Sigma). Primary neurons were cultured in the Neurobasal+B27 medium, and a half of the medium was exchanged every two days. […]\nThe optical signal changes of neurons expressing neurotransmitter sensors were detected by perfusion with a neurotransmitter solution."}, "human ADRA2A receptor [4]": {"test_system": "human ADRA2A receptor", "assay": "GRAB-NE2.1 in primary cultured rat cardiomyocytes, drug perfusion", "details": "GRAB-NE2.1 in cardiomyocytes, 1 μM Yohimbine", "excerpt": "The GRAB-NE2.1 sensor was transfected into primary cultured rat cardiomyocytes by liposomes, and the optical signal changes for the ligand binding and affinity for ligand were detected by drug perfusion."}},
  "data": [
    {"smiles": "COC(=O)[C@@H]1[C@H]2C[C@H]3c4[nH]c5ccccc5c4CCN3C[C@@H]2CC[C@@H]1O", "note": "[Yohimbine]", "values": [
      {"measurement": "effect of blocker on NE concentration-dependent changes", "setting": "human ADRA2A receptor [1]; GRAB-NE2.0, 10 nM to 100 μM NE, 1 μM Yohimbine", "result": "completely inhibited"},
      {"measurement": "effect of blocker on ligand-induced NE sensor signal changes", "setting": "human ADRA2A receptor [1]; GRAB-NE2.0, Yohimbine 2 μM", "result": "can inhibit"},
      {"measurement": "effect of blocker on NE-induced fluorescence signal", "setting": "human ADRA2A receptor [1]; GRAB-NE2.1, Yohimbine 2 μM", "result": "can inhibit"},
      {"measurement": "effect of blocker on photolysis-induced fluorescence change", "setting": "human ADRA2A receptor [2]", "result": "inhibited"},
      {"measurement": "effect of blocker on ligand-induced optical signal changes", "setting": "human ADRA2A receptor [3]", "result": "can inhibit"},
      {"measurement": "effect of blocker on NE reaction", "setting": "human ADRA2A receptor [4]", "result": "can inhibit"}
    ]}
  ]
}
